Source: patent US7491489B2 (priority 2004, dated 2009)
Converted amounts (≈) assume the structure as drawn.

Columns and labels:
SARS-CoV GZ50 strain [1] = tested on: SARS-CoV GZ50 strain
SARS-CoV GZ50 strain [2] = format: cell-based

| Compound | IC90 (peptide concentration that reduced the viral titer by 90% relative to untreated control) (SARS-CoV GZ50 strain [1]) [µg/mL] | Intracellular viral RNA levels (SARS-CoV GZ50 strain [2]) | Released viral titer relative to untreated control (SARS-CoV GZ50 strain [1]) | Cytotoxic effects on peptide-treated cells (FRhK-4 cells) |
| --- | --- | --- | --- | --- |
| CC[C@H](C)[C@H](NC(=O)CNC(=O)[C@H](CC(C)C)NC(=O)[C@@H]1CCCN1C(=O)[C@H](CC(C)C)NC(=O)[C@H](CCCCN)NC(=O)[C@@H](N)Cc1ccccc1)C(=O)N[C@@H](CC(N)=O)C(=O)N[C@H](C(=O)N[C@H](C(=O)N[C@@H](CC(N)=O)C(=O)N[C@@H](Cc1ccccc1)C(=O)N[C@@H](CCCNC(=N)N)C(=O)N[C@@H](C)C(=O)N[C@H](C(=O)N[C@@H](CC(C)C)C(=O)N[C@H](C(=O)N[C@@H](C)C(=O)N[C@@H](Cc1ccccc1)C(=O)N[C@@H](CO)C(=O)O)[C@@H](C)O)[C@@H](C)CC)[C@@H](C)O)[C@@H](C)CC [P1] | >500 | – | – | – |
| CC[C@H](C)[C@H](NC(=O)[C@@H](NC(=O)CNC(=O)[C@H](CC(N)=O)NC(=O)[C@H](CCC(=O)O)NC(=O)[C@H](CC(=O)O)NC(=O)[C@H](Cc1ccc(O)cc1)NC(=O)[C@H](CCCCN)NC(=O)[C@H](CC(C)C)NC(=O)[C@H](CCSC)NC(=O)[C@H](Cc1ccccc1)NC(=O)[C@@H](NC(=O)[C@@H](NC(=O)[C@@H]1CCCN1)[C@@H](C)O)[C@@H](C)O)[C@@H](C)O)C(=O)N[C@H](C(=O)N[C@@H](CC(=O)O)C(=O)N[C@@H](C)C(=O)N[C@H](C(=O)N[C@@H](CC(=O)O)C(=O)N[C@@H](CS)C(=O)O)C(C)C)[C@@H](C)O [P2] | 112.5 ± 26.3 (≈ 50.3 µM) | reduced | 18 % of the control | – |
| CC(C)C[C@H](NC(=O)[C@@H](N)C(C)C)C(=O)N[C@@H](Cc1ccc(O)cc1)C(=O)N[C@@H](CC(N)=O)C(=O)N[C@@H](CO)C(=O)N[C@H](C(=O)N[C@@H](Cc1ccccc1)C(=O)N[C@@H](Cc1ccccc1)C(=O)N[C@@H](CO)C(=O)N[C@H](C(=O)N[C@@H](Cc1ccccc1)C(=O)N[C@@H](CCCCN)C(=O)N[C@@H](CS)C(=O)N[C@@H](Cc1ccc(O)cc1)C(=O)NCC(=O)N[C@H](C(=O)N[C@@H](CO)C(=O)N[C@@H](C)C(=O)N[C@H](C(=O)N[C@@H](CCCCN)C(=O)O)[C@@H](C)O)C(C)C)[C@@H](C)O)[C@@H](C)O [P3] | >500 | – | – | – |
| CC[C@H](C)[C@H](NC(=O)CNC(=O)[C@H](CO)NC(=O)[C@@H](NC(=O)[C@@H](NC(=O)[C@H](Cc1ccc(O)cc1)NC(=O)[C@H](Cc1ccccc1)NC(=O)CNC(=O)[C@H](Cc1ccc(O)cc1)NC(=O)[C@H](CC(=O)O)NC(=O)[C@H](CC(N)=O)NC(=O)[C@H](CC(C)C)NC(=O)[C@@H]1CCCN1C(=O)[C@H](Cc1c[nH]c2ccccc12)NC(=O)[C@H](Cc1ccc(O)cc1)NC(=O)[C@H](CS)NC(=O)[C@H](CC(N)=O)NC(=O)[C@H](CC(C)C)NC(=O)[C@H](C)NC(=O)[C@@H]1CCCN1)[C@@H](C)O)[C@@H](C)O)C(=O)O [P4] | >500 | – | – | – |
| CC[C@H](C)[C@H](NC(=O)[C@H](CCC(=O)O)NC(=O)[C@H](CO)NC(=O)[C@@H](NC(=O)[C@H](CCCCN)NC(=O)[C@@H]1CCCN1C(=O)[C@H](CC(=O)O)NC(=O)[C@H](CCCNC(=N)N)NC(=O)[C@@H](NC(=O)[C@H](CO)NC(=O)[C@H](CC(=O)O)NC(=O)[C@@H](NC(=O)[C@H](Cc1ccccc1)NC(=O)[C@H](CC(=O)O)NC(=O)[C@H](CO)NC(=O)[C@@H](NC(=O)[C@H](CC(=O)O)NC(=O)[C@@H](N)CCCNC(=N)N)C(C)C)[C@@H](C)O)C(C)C)[C@@H](C)O)C(=O)N[C@@H](CC(C)C)C(=O)N[C@@H](CC(=O)O)C(=O)O [P5] | >500 | – | – | – |
| CC[C@H](C)[C@H](NC(=O)[C@H](C)NC(=O)[C@@H](NC(=O)[C@H](CO)NC(=O)[C@@H](NC(=O)[C@H](CC(=O)O)NC(=O)[C@@H](NC(=O)[C@H](CS)NC(=O)[C@H](CC(N)=O)NC(=O)[C@@H](NC(=O)[C@H](CC(=O)O)NC(=O)[C@H](CCC(N)=O)NC(=O)[C@@H](N)Cc1ccc(O)cc1)C(C)C)[C@@H](C)O)C(C)C)[C@@H](C)O)C(=O)N[C@@H](Cc1c[nH]cn1)C(=O)N[C@@H](C)C(=O)N[C@@H](CC(=O)O)C(=O)N[C@@H](CCC(N)=O)C(=O)N[C@@H](CC(C)C)C(=O)N[C@H](C(=O)N1CCC[C@H]1C(=O)O)[C@@H](C)O [P6] | 113.0 (≈ 51.6 µM) | reduced | 18 % of the control | – |
| CC[C@H](C)[C@H](NC(=O)[C@H](CO)NC(=O)[C@H](Cc1ccccc1)NC(=O)[C@H](CC(N)=O)NC(=O)[C@@H](NC(=O)[C@@H]1CCCN1C(=O)[C@@H](NC(=O)[C@H](C)NC(=O)[C@@H](NC(=O)[C@@H](NC(=O)[C@H](CC(N)=O)NC(=O)[C@H](CC(N)=O)NC(=O)[C@@H](N)CO)[C@@H](C)O)[C@@H](C)CC)[C@@H](C)CC)[C@@H](C)O)C(=O)N[C@@H](CO)C(=O)N[C@H](C(=O)N[C@H](C(=O)N[C@H](C(=O)N[C@@H](CCC(=O)O)C(=O)N[C@H](C(=O)N[C@@H](CCSC)C(=O)O)C(C)C)[C@@H](C)O)[C@@H](C)O)[C@@H](C)CC [P7] | >500 | – | – | – |
| CC[C@H](C)[C@H](NC(=O)CNC(=O)[C@H](CO)NC(=O)[C@H](CC(C)C)NC(=O)[C@H](C)NC(=O)[C@H](CCCNC(=N)N)NC(=O)[C@H](CC(N)=O)NC(=O)[C@H](CC(C)C)NC(=O)[C@H](CCC(N)=O)NC(=O)[C@@H](NC(=O)[C@H](CS)NC(=O)[C@H](Cc1ccccc1)NC(=O)[C@H](CO)NC(=O)CNC(=O)[C@H](Cc1ccc(O)cc1)NC(=O)[C@@H](N)CCC(N)=O)[C@@H](C)O)C(=O)N[C@@H](C)C(=O)N[C@@H](C)C(=O)N[C@@H](CCC(=O)O)C(=O)N[C@@H](CCC(N)=O)C(=O)O [P8] | 24.9 (≈ 11.5 µM) | – | – | None of the 10 peptide-treated cells exhibited cytotoxic effects |
| CC[C@H](C)[C@H](NC(=O)CN)C(=O)NCC(=O)N[C@H](C(=O)N[C@H](C(=O)N[C@@H](CCC(N)=O)C(=O)N[C@@H](CC(N)=O)C(=O)N[C@H](C(=O)N[C@@H](CC(C)C)C(=O)N[C@@H](Cc1ccc(O)cc1)C(=O)N[C@@H](CCC(=O)O)C(=O)N[C@@H](CC(N)=O)C(=O)N[C@@H](CCC(N)=O)C(=O)N[C@@H](CCCCN)C(=O)N[C@@H](CCC(N)=O)C(=O)N[C@H](C(=O)N[C@@H](C)C(=O)N[C@@H](CC(N)=O)C(=O)N[C@@H](CCC(N)=O)C(=O)N[C@@H](Cc1ccccc1)C(=O)O)[C@@H](C)CC)C(C)C)[C@@H](C)O)C(C)C [P9] | >500 | – | – | – |
